# Measured values published in US11020337B2, “Aspartyl-dipeptides for skin care and cosmetic use” (Cysal GmbH, priority 2016, dated 2021).
# Legend:
# [1] = test system: EpiDerm 3D-Epidermal skin models (normal human keratinocytes); test: MTT-Vitality-Assay, in-vitro epidermal vitality/viability; format: cell-based; conditions: 30 μl of 5% aqueous solution once a day
# Experimental: (§1) Experimental application of test-products: In this study 30 μl of a 5% aqueous solution of the test substances were applied as follows using a calibrated pipette:
# (§2) Application was done in duplicates (2 models) at all time points and models were cultured and analyzed in parallel under identical conditions.
# (§3) EpiDerm 3D-Epidermal skin models: Nowadays in vitro test procedures are a very good alternative to animal experiments and become increasingly important for the cosmetic industry. For cosmetic products which are used over a longer period, dermatological tests for harmlessness are an essential prerequisite for a high application safety and customer satisfaction. During the development of new cosmetic products biological effects of particular active ingredients or complete formulations turn into focus of cosmetic interests. The human EpiDerm skin model is an in vitro reconstructed multilayered epithelial tissue which is cultured of normal human keratinocytes. […] The model is mitotically as well as metabolically active and expresses typical differentiation marker like pro-fillagrin 1 and cytokeratin 1/10.
# This term summarizes all metabolic activities which cells need for their basic requirements as well as for growth and proliferation. An established method to measure vitality of cells and tissues is the MTT-Vitality-Assay. […] The formazan crystals precipitate into the cellular cytosol, whereby the amount of precipitate correlates quantitatively with the general cellular vitality. Therefore the MTT-Assay can be considered as an indicator for the vitality or “Fitness” of a tissue, because cellular processes like respiration and energy extraction lead to the reduction of MTT.
# Aim of this experiment was to examine the potential of the test substances to vitalize the tissue. For this purpose 3D-Epidermis skin models were used. […] After incubation period the bottom of model jars were dabbed with a sterile wipe to remove excessive medium/MTT mix. Models were transferred to a new sterile 24 well plate and 2 ml isopropyl was added subsequently. To avoid evaporation, plates were sealed with parafilm, covered with tinfoil and incubated 2 h on a shaker to extract formazan crystals. Optical density of released crystals of all extracts was determined at 570 nm. Measured values were analyzed and assessed. […] The vitality was derived from averages of determined ODs whereby the water treated, optimal cultured control was set as 100% vitality [vitality: 100*(ODtest substance/ODcontrol)].
# human skin [2] = test: In-vivo skin moisture (Corneometer CM 825); conditions: 4 weeks; for improvement in skin moisture, treated area: twice a day
# Description: (§4) Panelists: The test panel included 5 adult female volunteers with dry skin, elasticity less than average and crow's feet wrinkles next to the eyes. At the beginning of the application test all subjects have been checked by a dermatologist. Only subjects were allowed to join the trial with no pathological skin modifications diagnosed. During the application test all subjects had in case of acute skin irritations access to daily consultations from an attending medical specialist who was accompanying the test. Daily consultations about the skin conditions through the test-accompanying medical doctor were possible.
# (§5) Experimental application of test-products: Test areas were around 3 cm in diameter. The test products were applied on the volar forearm (5% and 10% aqueous solutions; skin elasticity and hydration tests) as well as the crows's feet wrinkles (5% aqueous solution). The application of the preparations have been done twice a day during the whole test period (4 weeks). The subjects have been instructed not to use other care products in this test area. Untreated skin areas were used as control.
# Skin moisture: this aspect was tested using the Corneometer CM 825 (Firma Courage+Khazaka). The test products were applied twice a day on the relevant pre-determined skin areas during the application period. The test persons were acclimatized for 45 minutes at a temperature of 22 degrees centigrade and 60% relative humidity before every measurement, then, the skin measurement values were measured at three different places within the respective testing areas. The recorded values were averaged. Untreated skin close to the test area was used as the control measurement area. Measurements were taken before the application and after four weeks of application. All measurements were performed at least 10-12 hours after the last application of the formerly used product resp. the test product.
# [3] = test system: basal keratinocytes of 3D-Epidermal skin models; test: Click-iT EdU proliferation rate of basal keratinocytes; format: cell-based, human; conditions: topical, 30 μl of 5% aqueous solution
# Experimental: as §1
# Proliferation testing of basal Keratinocytes (Example 2): topically with air exposed models as reference and analysis time points for proliferation rate after 3 and 6 days.
# as §2
# as §3, with “1/10. […]” for “1/10.”
# Evaluation of the proliferation rate: Out of every used skin model, 6 mm punch biopsies were taken, embedded in O.C.T.™, cryoconserved in the gaseous phase of liquid nitrogen and subsequently cut into 5-6 μm sections. Nuclei from every section were counted (blue fluorescence, DAPI) and the percentage of proliferating nuclei (red fluorescence) was determined.
# Fluorescence microscopy: Click-iT®-EdU tagged cells were stained in red (λex 594 nm). […] Click-iT®-EdU and DAPI stained cells were recorded solely and merged subsequently. The fluorescence analysis and documentation was performed with the ZEISS, Axio Scope A1HAL 100. […]
# human skin [4] = test: In-vivo skin elasticity test (cutometer MPA 580, R2-values); conditions: 4 weeks; for improvement in skin elasticity, treated area: twice a day
# Description: as §4, §5
# Elasticity test: The test was performed with the cutometer MPA 580 Fa. Courage+Khazaka electronics GmbH. The principle of measurement is based on the suction/elongation principle. To obtain start conditions the instrument was adjusted for 450 mbar low pressure. The suction time was defined to 5 secs. The relaxation time (abrupt loss of low pressure) was fixed to 3 secs. All measurements have been repeated three times for each test and control areas. Afterwards a mean for R2-values obtained from three independent measurements per area has been calculated. To perform measurements the instrument was adjusted for the named parameters before the test was started. All parameter adjustments described in literature as mainly used and reliable remained unchanged during the measurements. The cutometry has been performed at the beginning and at the end of the application period. R2-values have been measured and analyzed for each subject.
# crow's feet wrinkles = test: In-vivo single wrinkle depth (PRIMOS optical 3D measurement); parameters: species or system human; conditions: 5% aqueous solution, four weeks, 5 subjects
# Description: as §4
# Experimental application of test-products: Test areas were around 3 cm in diameter. […]
# Single wrinkles depth: Optical 3D measurement using a PRIMOS (Phaseshift Rapid In vivo Measurement Of Skin) compact portable system was used for this measurement. PRIMOS comact portable was applied on an area of 40×30 mm and digital fotos of the measured area were made. […] Finally, the measurement data generated were processed and then evaluated. […] With the PRIMOS software the changes in structure of the epidermis can be classified quantitatively with the aid of various standardized surface measurement parameters in accordance with DIN (Deutsche Industrie Norm, German industrial standards) and ISO (International Standards Organisation). […] The skinfold depth can be measured by determining the distances. […]
# [5] = crow's feet (next to the eye), 5% aqueous solution
# [6] = crow's feet (next to the eyes), 5% aqueous solution
# [7] = volar forearm, 5% aqueous solution
# [8] = volar forearm, 10% aqueous solution
# [9] = 3 days incubation, air exposed models 11.21%
# [10] = crow's feet area, 5% aqueous solution
Compound,"vitality (MTT, water treated control = 100%) ([1]; 48 h systematical (systemic) incubation, FIG. 1) [%]","vitality (MTT, water treated control = 100%) ([1]; 48 h topical application, FIG. 2) [%]","vitality (MTT, water treated control = 100%) ([1]; 120 h systemical incubation, FIG. 3) [%]","vitality (MTT, water treated control = 100%) ([1]; 120 h topical application, FIG. 4) [%]","improvement in skin moisture, treated area (human skin [2]; [5])",average improvement in skin moisture after control area deduction (human skin [2]; [6]) [%],average improvement in skin moisture after control area deduction (human skin [2]; [7]) [%],"improvement in skin moisture, treated area (human skin [2]; [7])",average improvement in skin moisture after control area deduction (human skin [2]; [8]) [%],"improvement in skin moisture, treated area (human skin [2]; [8]) [%]","percentage of proliferative cells (nuclei) [3, 9] [%]",average improvement in skin elasticity after control area deduction (human skin [4]; [10]) [%],"average improvement in skin elasticity after control area deduction (human skin [4]; forearm, 5% aqueous solution) [%]","average improvement in skin elasticity after control area deduction (human skin [4]; forearm, 10% aqueous solution) [%]","improvement in skin elasticity, treated area (human skin [4]; [7])","improvement in skin elasticity, treated area (human skin [4]; [8]) [%]",average improvement in the wrinkle depth (crow's feet wrinkles) [%],"percentage of proliferative cells (nuclei) ([3]; 6 days incubation, air exposed models 17.11%) [%]","improvement in skin elasticity, treated area (human skin [4]; crow's feet, 5% aqueous solution) [%]"
N=C(N)NCCC[C@H](NC(=O)C[C@H](N)C(=O)O)C(=O)O [β-L-aspartyl-L-arginine],127.23,112.36,118.16,120.61,about 1.873%,1.56,0.82,about 1.126%,0.56,~0.871,30.98,8.08,9.26,8.85,about 9.11%,~8.70,16.4,,
NCCCC[C@H](NC(=O)C[C@H](N)C(=O)O)C(=O)O [β-L-aspartyl-L-lysine],,,,,about 16.10%,15.79,1.74,about 2.05%,,,16.33,11.21,6.18,,about 6.03%,,20.02,22.12,11.06
